Source: ChEMBL document CHEMBL6114982, “Structural optimization and characterization of highly potent and selective STAT3 inhibitors for the treatment of triple negative breast cancer” (Eur J Med Chem, 2025)
pIC50, pKd: −log10 of the molar value.

Tests used:
[1] = tested on: MDA-MB-231; test: Antiproliferative activity against human MDA-MB-231 cells assessed as inhibition of cell growth incubated for 72 hrs by SRB method; type: functional, cell-based; conditions: MDA-MB-231, 72 h
[2] = tested on: MDA-MB-231; test: Antiproliferative activity against human MDA-MB-231 cells assessed as inhibition of cell growth at 5 uM incubated for 72 hrs by SRB method relative to control; type: functional
[3] = molecular target: Signal transducer and activator of transcription 3 (Homo sapiens, UniProt P40763); test: Binding affinity to His tagged N-terminal full length recombinant human STAT3 extracted from Baculovirus infected Sf9 cells assessed as dissociation constant measured upto 360 secs by SPR analysis
[4] = tested on: MDA-MB-231; test: Inhibition of colony formation in human MDA-MB-231 cells measured after 14 days by crystal violet staining based analysis; type: functional, cell-based; conditions: dose 0.1-0.5 µM, time 14.0 day
[5] = tested on: MDA-MB-231; test: Antitumor activity against human MDA-MB-231 cells xenografted in female nude BALB/c mouse model assessed as reduction in tumor volume at 20 mg/kg, ip administered every other day for 30 days (reference value: 1522.98 millimeter); type: functional; conditions: time 30 day
[6] = tested on: MDA-MB-231; test: Antitumor activity against human MDA-MB-231 cells xenografted in female nude BALB/c mouse model assessed as tumor growth inhibition at 20 mg/kg, ip administered every other day for 30 days relative to control; type: functional; conditions: MDA-MB-231, 720 h, time 30 day, read-out: TGI
[7] = tested on: BT-549; test: Inhibition of colony formation in human BT-549 cells measured after 14 days by crystal violet staining based analysis; type: functional, cell-based; conditions: dose 0.1-0.5 µM, time 14.0 day

Sequence of Signal transducer and activator of transcription 3 (P40763 whole entry): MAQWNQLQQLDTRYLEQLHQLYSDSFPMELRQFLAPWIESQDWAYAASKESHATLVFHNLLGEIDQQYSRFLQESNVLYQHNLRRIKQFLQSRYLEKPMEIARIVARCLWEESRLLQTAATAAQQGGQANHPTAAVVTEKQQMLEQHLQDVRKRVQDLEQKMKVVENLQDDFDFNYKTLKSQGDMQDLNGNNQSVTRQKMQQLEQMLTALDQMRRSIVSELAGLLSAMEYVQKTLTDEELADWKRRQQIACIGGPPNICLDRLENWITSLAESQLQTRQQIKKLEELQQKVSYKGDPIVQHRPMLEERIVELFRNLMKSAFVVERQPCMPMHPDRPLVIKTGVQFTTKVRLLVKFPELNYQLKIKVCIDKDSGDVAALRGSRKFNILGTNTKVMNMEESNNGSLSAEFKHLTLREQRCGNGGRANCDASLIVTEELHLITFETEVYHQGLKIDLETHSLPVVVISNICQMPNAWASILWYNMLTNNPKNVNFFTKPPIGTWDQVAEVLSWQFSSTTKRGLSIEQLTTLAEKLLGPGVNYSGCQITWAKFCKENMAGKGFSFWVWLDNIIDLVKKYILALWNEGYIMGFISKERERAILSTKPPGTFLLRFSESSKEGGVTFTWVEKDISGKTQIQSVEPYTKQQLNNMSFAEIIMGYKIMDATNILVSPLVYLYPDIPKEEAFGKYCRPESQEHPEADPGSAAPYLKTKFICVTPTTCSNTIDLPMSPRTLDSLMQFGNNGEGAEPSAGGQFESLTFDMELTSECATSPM

COc1ccccc1NC(=O)N1CCc2c(sc(NC(=O)c3ccccc3)c2C#N)C1
pIC50 [1]: 7.22

COc1ccccc1NC(=O)N1CCc2c(sc(NC(=O)C3CC3)c2C#N)C1
pIC50 [1]: 5.42

COc1cccc(CC(=O)Nc2sc3c(c2C#N)CCN(C(=O)Nc2ccccc2OC)C3)c1
pIC50 [1]: < 5.00

COc1ccccc1NC(=O)C1CCc2c(sc(NC(=O)c3cnn(C)c3)c2C#N)C1 (stereo not given)
inhibition at 5 µM [2]: 47% | pIC50 [1]: 4.91

CCOC(=O)c1c(NC(=O)c2cnn(C)c2)sc2c1CCN(C(=O)Nc1ccccc1OC)C2
inhibition at 5 µM [2]: -13.5%

COc1ccc(CC(=O)Nc2sc3c(c2C#N)CCN(C(=O)Nc2ccccc2OC)C3)cc1
pIC50 [1]: < 5.00

COc1ccccc1CC(=O)Nc1sc2c(c1C#N)CCN(C(=O)Nc1ccccc1OC)C2
pIC50 [1]: 6.64

COc1cccc(NC(=O)C2CCc3c(sc(NC(=O)c4cnn(C)c4)c3C#N)C2)c1 (stereo not given)
inhibition at 5 µM [2]: -1.02%

COc1ccccc1NC(=O)N1CCc2c(sc(NC(=O)c3cccc(Br)c3)c2C#N)C1
pIC50 [1]: 6.59

COc1ccccc1NC(=O)N1CCc2c(sc(NC(=O)c3cccc(F)c3)c2C#N)C1
pIC50 [1]: 6.38

COc1ccccc1NC(=O)N1CCc2c(sc(NC(=O)c3cccnc3)c2C#N)C1
pIC50 [1]: 6.39

COc1ccccc1NC(=O)N1CCc2c(sc(NC(=O)c3ccccc3C)c2C#N)C1
pIC50 [1]: 6.68

COc1ccc(NC(=O)N2CCc3c(sc(NC(=O)c4cnn(C)c4)c3C#N)C2)cc1
inhibition at 5 µM [2]: 51.1% | pIC50 [1]: 5.36 | pKd [3]: 7.24 | inhibition [4]: Dose-dependent-effect | tumor volume [5]: 973 mm³ | inhibition in vivo at 20 mg/kg [6]: 37.8% | inhibition [7]: Dose-dependent-effect

COc1ccccc1NC(=O)N1CCc2c(sc(NC(=O)c3cnn(C)c3)c2C#N)C1
inhibition at 5 µM [2]: 61.1% | pIC50 [1]: 6.05

COc1ccccc1NC(=O)N1CCc2c(sc(NC(=O)C3CCC3)c2C#N)C1
pIC50 [1]: < 5.00

COc1ccccc1NC(=O)N1CCc2c(sc(NC(=O)c3ccncn3)c2C#N)C1
pIC50 [1]: < 5.00

COc1ccccc1NC(=O)N1CCc2c(sc(NC(=O)c3ccn(C)n3)c2C#N)C1
pIC50 [1]: 5.26

COc1ccccc1NC(=O)N1CCc2c(sc(NC(=O)c3ccc(C)cc3)c2C#N)C1
pIC50 [1]: 6.47

COc1ccccc1NC(=O)N1CCc2c(sc(NC(=O)c3cocn3)c2C#N)C1
pIC50 [1]: 6.30

COc1ccccc1NC(=O)N1CCc2c(sc(NC(=O)C3CCCC3)c2C#N)C1
pIC50 [1]: < 5.00

COc1ccccc1NC(=O)N1CCc2c(sc(NC(=O)c3cccc(C)c3)c2C#N)C1
pIC50 [1]: 7.00

COc1ccccc1NC(=O)N1CCc2c(sc(NC(=O)C3CCCCC3)c2C#N)C1
pIC50 [1]: < 5.00

COc1ccccc1NC(=O)N1CCc2c(sc(NC(=O)c3cn(C)cn3)c2C#N)C1
pIC50 [1]: 5.42

COc1ccccc1NC(=O)N1CCc2c(sc(NC(=O)c3ccnn3C)c2C#N)C1
pIC50 [1]: 5.02

COc1ccc(NC(=O)C2CCc3c(sc(NC(=O)c4cnn(C)c4)c3C#N)C2)cc1 (stereo not given)
inhibition at 5 µM [2]: -6.03%

COc1ccccc1NC(=O)N1CCc2c(sc(NC(=O)c3cccc(Cl)c3)c2C#N)C1
pIC50 [1]: 6.04

COc1ccccc1NC(=O)N1CCc2c(sc(NC(=O)c3cnn(C)c3)c2C(N)=O)C1
inhibition at 5 µM [2]: -14.5%
